Source: patent publication US7973213B2, “Antibiotic resistance conferred by a plant ABC transporter gene when expressed in transgenic plants” (University of Tennessee Research Foundation, priority 2005, dated 2011)

Columns and labels:
[1] = test system: transgenic tobacco events 28 and 30; assay: Resistance of Atwbc19 transgenic tobacco events to other antibiotics; type: in vivo, Nicotiana tabacum; conditions: Atwbc19-only transgenic events 28 and 30
[2] = test system: Arabidopsis thaliana insertional knockout mutants; assay: Root growth of Arabidopsis insertional mutants on MSO media with kanamycin; type: in vivo; conditions: media with 100 mg/l kanamycin, 2 weeks
Description: Sequence-tagged insertional mutant lines for the three ABC transporters, Atwbc19 (SALK—107731), Atwbc18 (SALK—100187) and Atwbc16 (SALK—119868) were obtained from ABRC Arabidopsis knock-out library. Homozygosity was tested by PCR of genomic DNA using 3 primers (Table 1). Two of the primers are specific to the native gene and amplify a known fragment. The third primer is specific to the T-DNA. Where the T-DNA is inserted between the two gene specific primers, a smaller fragment is generated allowing the identification of insertion in the gene of interest. The fragment was sequenced to ensure that it mapped at the expected loci. Kanamycin resistance was assessed by growing the mutants on MSO media with and without 100 mg/l kanamycin. Stratified seeds were germinated on 4 Petri dishes with 6 plants for each line and placed vertically in a growth chamber at 25 degrees. Root length was measured after 2 weeks. To quantify NPTII protein levels, total protein was extracted from 100 mg of root and shoot tissue from seedlings germinated on MSO media for 2 weeks, with 2 replicate samples per line. An ELISA was performed using a kit according to the manufactures instructions (Agdia, Elkhart, Ind., USA).

Escherichia coli DH5α = assay: Kanamycin resistance of transformed E. coli in 96-well microtiter plates (optical density 630 nm); type: cell-based; conditions: E. coli transformed with pKS-ABC, IPTG 1 mM, 24 hr
Description: Escherichia coli DH5α was obtained from stock strains available within our lab. All strains were cultured on LB media. Three plasmids were used in this study. pKS-ABC contains the Atwbc19 gene under the control of the lacZ promoter in pBluescript II SK+; pKS-nptII contains the nptII gene with the lacZ promoter in pBluescript II SK+; and pKS is pBluescript II SK+ with no inserted genes as a control. The microorganisms were maintained in glycerol stocks and stored at −80° C. Working cultures were obtained by inoculating a loopful of culture into 50 ml LB broth supplemented with ampicillin (100 mg/l) and incubated at 37° C. for 24 hr.
E. coli DH5α were transformed with pKS, pKS-ABC, and pKS-nptII by freeze/thaw method (Hanahan 1983). The gram-negative […] Escherichia coli DH5α were used in all transformations. For selection of transformants, aliquots of bacteria were spread onto solidified LB medium supplemented with ampicillin (100 mg/l) and incubated at 37° C.
Isopropyl-b-D-thiogalctopyranoside (IPTG) at 1 mM was used to induce Atwbc19 expression. Each well was filled with 199 μl LB, IPTG and varying concentrations of kanamycin or gentamycin and 50 μl bacterial treatment (DH5α transformed with pKS-ABC, DH5α transformed with pKS-nptII, DH5α transformed with pKS or none). […] Optical densities were measured at 630 nm (Biorad) after incubating microtiter plates at 37° C. for 24 hr.

[3] = test system: Nicotiana tabacum cv Xanthi; assay: Root growth of T1 transgenic tobacco (pS15-ABC-dKan) on media with kanamycin; type: in vivo; conditions: 200 mg/l kanamycin, 3 weeks
Description: Segregation analysis was performed on MS media (Murashige et al., 1962) with B5 vitamins (Gamborg et al., 1968) and 3% sucrose (MSO media) containing 200 mg/l kanamycin. T1 seeds from plants transformed with pS15-ABC-dKan were surface sterilized and germinated on the media. Root growth analysis was performed as above on vertically positioned plates where 6 seeds per plate and 6 replicate plates for each event were germinated with and without 100 and 200 mg/l kanamycin. Root length was measured after 3 weeks. All experiments were performed in a 25° C. growth cabinet under constant 40 μE irradiance.

NCC[C@H](O)C(=O)N[C@@H]1C[C@H](N)[C@@H](O[C@H]2O[C@H](CN)[C@@H](O)[C@H](O)[C@H]2O)[C@H](O)[C@H]1O[C@H]1O[C@H](CO)[C@@H](O)[C@H](N)[C@H]1O [amikacin]
resistance of plants to the antibiotic [1]: no resistance

O=C(N[C@H](CO)[C@H](O)c1ccc([N+](=O)[O-])cc1)C(Cl)Cl [chloramphenicol]
resistance of plants to the antibiotic [1]: no resistance

NC[C@H]1O[C@H](O[C@H]2[C@H](O)[C@@H](O[C@H]3O[C@H](CO)[C@@H](O)[C@H](N)[C@H]3O)[C@H](N)C[C@@H]2N)[C@H](O)[C@@H](O)[C@@H]1O [kanamycin]
root growth (root length) ([2]; line SALK—100187 (Atwbc18 mutant)): 1.82±0.25 cm | root growth (root length) ([2]; line SALK—107731 (Atwbc19 mutant)): 0.31±0.04 cm | root growth (root length) ([2]; line SALK—119868 (Atwbc16 mutant)): 0.30±0.03 cm | kanamycin concentrations to which Atwbc19 confers resistance (Escherichia coli DH5α): below 12.5 mg/l | Root length ([3]; Atwbc19 transgenic event #28, T1 seeds): 1.03±0.55 cm | Root length ([3]; Atwbc19 transgenic event #30, T1 seeds): 2.02±1.16 cm | Root length ([3]; control (non-transgenic) tobacco): 0.37±0.09 cm

[H]/N=C(/N)N[C@H]1[C@H](O)[C@@H](O)[C@H](O[C@@H]2O[C@@H](C)[C@](O)(C=O)[C@H]2O[C@@H]2O[C@@H](CO)[C@H](O)[C@@H](O)[C@@H]2NC)[C@@H](N/C(N)=N\[H])[C@@H]1O [streptomycin]
resistance of plants to the antibiotic [1]: no resistance

gentamycin
resistance of plants to the antibiotic [1]: no resistance
